Test results reported in patent US20100184807A1, “Methods to inhibit tumor cell growth by using proton pump inhibitors” (Bio-Quant, Inc., priority 2008, published 2010).

Columns and labels:
Experiment in all cases: MTT tumor cell growth assay
Type in all cases: cell-based
[1] = tested on: SKMEL5 (melanoma); details: SKMEL5 cells, lansoprazole 1-100 μM, 48 hours
Description: (§1) In one study, adherent cells were plated approximately 16-24 hours before the day of the experiment in 180 μl growth media. On the day of the experiment, the plated adherent cells were analyzed and counted and suspension cells were plated in 180 μl growth media. 10× lansoprazole compounds and vehicle was prepared. The 10× lansoprazole compounds were prepared by diluting lansoprazole to final concentrations of 100 μM, 30 μM, 10 μM, 3 μM, and 1 μM. A vehicle was prepared by preparing a solution of PBS, equivalent to the volume used for 10 μM lansoprazole wherein the 1× solution constitutes ˜0.06% PBS. 10 μl of the various 10× lansoprazole solutions and the vehicle were added to the cells. The cells were incubated at 37° C., 5% CO2 for 48 hours. The media was then aspirated. The cell suspension was then spun at 1500 RPM for 10 minutes. The media was slowly removed. 200 μl of MTT solution was added to each well with a concentration of 0.863 mg/ml MTT in the growth media. The cells were incubated at 37° C., 5% CO2 for 4 hours and the medium is then aspirated. The plate containing the cell suspension was then spun at 1500 RPM for 10 minutes. The media was slowly removed using a multichannel pipettor. 100 μl of DMSO was then added to each well. The cells were incubated at 37° C., 5% CO2 for 5 minutes and the absorbance was obtained at 560 nm using a Dynex Opsys MR plate reader. The cells used for this procedure were the following cell lines: IGROV1 (ovarian cancer); OVCAR 8 (ovarian cancer); ES-2 (ovarian cancer); CAOV3 (ovarian cancer); OVCAR5 (ovarian cancer); SUDHL4 (lymphoma); RPMI8226 (myeloma); RPMI6666 (Hodgkin's lymphoma); NC37 (lymphoma); GDM-1 (leukemia); MC/CAR (prostate cancer); DU-145 (prostate cancer), J45-01 (leukemia), MOLT3 (leukemia), HUT78, J-gamma-1 (leukemia), MCF7 […], COL0205 (colon cancer), HL60 CLONE 15 (leukemia), T47D (breast cancer), P116 (intestinal cancer), KU812 (leukemia), SW620 (colon cancer), MK92-M1 (lymphoma), MV-4-11 (leukemia), HS578T (breast cancer), HT29 (colon cancer), HCT 116 (colon cancer), CAKI-1 (kidney cancer), A549 (lung cancer), H460 (lung cancer), A3 (colon cancer), MDA-MB231 […], MALME 3M (melanoma), RXF393 (kidney cancer), RS4.11 (leukemia), PC3 (prostate cancer), OVCAR3 (ovarian cancer), MDA-MB435 (melanoma), HUT102 (lymphoma), HL60 (leukemia), CCRF-CEM (leukemia), HUT78 (lymphoma), 786-O (kidney cancer), ACHN (kidney cancer), A498 (kidney cancer), H226 (lung cancer), H522 (lung cancer), HOP92 (lung cancer), SNB 19 (brain cancer), OVCAR4 (ovarian cancer), H9 (lymphoma), UO-31 (kidney cancer), HH (lymphoma), DAUDI (leukemia), LOXIMVI (melanoma), NAMALWA (lymphoma), EKVX (lung cancer), DOHH2 (lymphoma), SNB75 (brain cancer), SKMEL28 (melanoma), SKMEL5 (melanoma), SKMEL2 (melanoma), M14 (melanoma), UACC 257 (melanoma), H332M (lung cancer), KM12 (colon cancer), HCC2998 (colon cancer), G401 (kidney cancer), RS1184 (lymphoma), MC116 (leukemia), MOLT4 (leukemia), JM1 (liver cancer), HOP-62 (lung cancer), HCT-15 (colon cancer), SF-539 (brain cancer), SF295 (brain cancer), ST486 (lymphoma), U251 (brain cancer), and UACC-62 (melanoma).

[2] = tested on: HH (lymphoma); details: HH cells, lansoprazole 1-100 μM, 48 hours
Description: as §1

[3] = tested on: HUT78 (lymphoma); details: HUT78 cells, lansoprazole 1-100 μM, 48 hours
Description: as §1

[4] = tested on: H522 (lung cancer); details: H522 cells, lansoprazole 1-100 μM, 48 hours
Description: as §1

[5] = tested on: H322M; details: H322M cells, lansoprazole 1-100 μM, 48 hours
Description: as §1

[6] = tested on: SKMEL28 (melanoma); details: SKMEL28 cells, lansoprazole 1-100 μM, 48 hours
Description: as §1

[7] = tested on: MDA-MB-435 (melanoma); details: MDA-MB-435 cells, lansoprazole 1-100 μM, 48 hours
Description: as §1

[8] = tested on: UACC257 (melanoma); details: UACC257 cells, lansoprazole 1-100 μM, 48 hours
Description: as §1

[9] = tested on: KU812 (leukemia); details: KU812 cells, lansoprazole 1-100 μM, 48 hours
Description: as §1

[10] = tested on: H460 (lung cancer); details: H460 cells, lansoprazole 1-100 μM, 48 hours
Description: as §1

[11] = tested on: MOLT3 (leukemia); details: MOLT3 cells, lansoprazole 1-100 μM, 48 hours
Description: as §1

[12] = tested on: HUT102 (lymphoma); details: HUT102 cells, lansoprazole 1-100 μM, 48 hours
Description: as §1

[13] = tested on: NK92MI; details: NK92MI cells, lansoprazole 1-100 μM, 48 hours
Description: as §1

[14] = tested on: HT29 (colon cancer); details: HT29 cells, lansoprazole 1-100 μM, 48 hours
Description: as §1

[15] = tested on: MDA-MB-231; details: MDA-MB-231 cells, lansoprazole 1-100 μM, 48 hours
Description: as §1

[16] = tested on: J45-01 (leukemia); details: J45-01 cells, lansoprazole 1-100 μM, 48 hours
Description: as §1

[17] = tested on: EKVX (lung cancer); details: EKVX cells, lansoprazole 1-100 μM, 48 hours
Description: as §1

[18] = tested on: 786-O (kidney cancer); details: 786-O cells, lansoprazole 1-100 μM, 48 hours
Description: as §1

Measured: tumor cell growth reduction

Cc1c(OCC(F)(F)F)ccnc1C[S+]([O-])c1nc2ccccc2[nH]1 (stereo not drawn) [lansoprazole]
significant tumor cell growth reduction: all assays above
